# Reference: publication PMC11650638, “In Vivo Activity Profiling of Biosynthetic Darobactin D22 against Critical Gram-Negative Pathogens” (ACS Infectious Diseases, 2024)
# Where two headings read alike, the source gives them in different places.
# How the values were obtained:
# Pseudomonas aeruginosa = test: MIC50/MIC90 determination and MIC against isolates of P. aeruginosa; type: cell-based
# Acinetobacter baumannii = test: MIC50/MIC90 determination and MIC against isolates of A. baumannii; type: cell-based
# Klebsiella pneumoniae = test: MIC50/MIC90 determination and MIC against isolates of K. pneumoniae; type: cell-based
# [1] = test system: Pseudomonas aeruginosa PAO1; test: Murine neutropenic thigh infection model; type: in vivo, CD-1 mice; conditions: 8 h, 20 mg/kg
# Description: Zg, Committee on Animal Research Ethics-Zagreb) in collaboration with the Croatian Competent Authority and the National Ethics Committee, granting this project a 5-year authorisation, in compliance […]
# Animals: The study was performed in male, 6–7 weeks old C57BL/6 mice. Animals were housed in a temperature-controlled room (22±2°C), relative humidity 55±10%, 15–20 air changes per hour, atrificial […]
# Sampling: Serial or terminal blood samples were collected into EDTA-coated tubes at the following […]
# into Precellys® tubes for all animals. Additional, terminal tissue samples were taken at 1 h for the IV and IP groups. For the SC and IT groups, terminal tissue samples were further taken at 2, 4, 8 h. Urine […]
# samples (3 animals) were collected into emtpy tubes and kept chilled, followed by centrifugation at 3000 rpm, 10 min, 4°C. Total urine volume was recorded. […]
# (§1) reduce stress and harm arising from experimental procedures, including use of analgesia, access to wet food and additional bedding. The room temperature, relative humidity and maximum background noise were maintained according to Home Office Code of Practice. Mice were exposed to 12-hour light/dark […]
# (§2) Mice were immunosuppressed using cyclophosphamide administered subcutaneously (SC) at 150 mg/kg on day minus 4 and at 100 mg/kg on day minus 1 relative to the day of infection. Following […]
# Escherichia coli = test: MIC50/MIC90 determination and MIC against isolates of E. coli; type: cell-based
# Escherichia coli 106-09 = test: Murine peritonitis/sepsis model; type: in vivo, CD-1 female mice; conditions: 40 mg/kg SC q6h
# Description: Mice were infected IP (Figure S7). […]
# as §1, §2
# CFU/thigh P. aeruginosa PAO1 by intramuscular (IM) injection of 50 µL bacterial suspension into both thighs. Following infection, a single dose of carprofen was administered SC to provide pain relief.
# One hour post-inoculation, one group of mice were euthanized to quantify the pre-treatment bacterial burden. […]
# At eight or 25 hours post infection, mice were euthanized by overdose of pentobarbitone and death confirmed by cervical dislocation. […] The bacterial burden was quantified following overnight incubation of agar plates at 37°C. For analytical purposes, burdens from individual thighs were counted as independent […]
# intravenously. Mice were observed during the study and scored 0 – 4 based on their behavior and clinical signs of discomfort and euthanized at the humane endpoint as a surrogate marker for death. […]
compound,measurement,setting,value
"O=C(O)c1cn(C2CC2)c2cc(N3CCNCC3)c(F)cc2c1=O [Ciprofloxacin, ciprofloxacin]",MIC,"Pseudomonas aeruginosa; Pseudomonas aeruginosa, ATCCBAA2114, isolate ATCC BAA-2114, read-out: MIC",4 µg/mL
same,MIC,"Pseudomonas aeruginosa; Pseudomonas aeruginosa, CIP105381, isolate CIP 105381, read-out: MIC",0.5 µg/mL
same,MIC,"Pseudomonas aeruginosa; Pseudomonas aeruginosa, PAO1, isolate PAO1, read-out: MIC",1 µg/mL
same,MIC,"Pseudomonas aeruginosa; Pseudomonas aeruginosa, isolate BOR 05, read-out: MIC",16 µg/mL
same,MIC,"Pseudomonas aeruginosa; Pseudomonas aeruginosa, isolate CAE 02, read-out: MIC",4 µg/mL
same,MIC,"Pseudomonas aeruginosa; Pseudomonas aeruginosa, isolate CHA, read-out: MIC",0.5 µg/mL
same,MIC,"Pseudomonas aeruginosa; Pseudomonas aeruginosa, isolate R2255, read-out: MIC",0.5 µg/mL
same,MIC,"Pseudomonas aeruginosa; Pseudomonas aeruginosa, isolate ROU 01, read-out: MIC",16 µg/mL
same,MIC,"Pseudomonas aeruginosa; Pseudomonas aeruginosa, isolate SDE 05, read-out: MIC",0.5 µg/mL
same,MIC,"Acinetobacter baumannii; Acinetobacter baumannii, ATCC17978, isolate ATCC17978, read-out: MIC",0.5 µg/mL
same,MIC,"Acinetobacter baumannii; Acinetobacter baumannii, ATCC19187, isolate ATCC19187, read-out: MIC",0.5 µg/mL
same,MIC,"Acinetobacter baumannii; Acinetobacter baumannii, ATCC51432, isolate ATCC51432, read-out: MIC",16 µg/mL
same,MIC,"Acinetobacter baumannii; Acinetobacter baumannii, ATCCBAA747, isolate ATCC BAA-747, read-out: MIC",0.5 µg/mL
same,MIC,"Acinetobacter baumannii; Acinetobacter baumannii, ATCCBAA1605, isolate ATCC BAA-1605, read-out: MIC",> 32 µg/mL
same,MIC,"Acinetobacter baumannii; Acinetobacter baumannii, ATCCBAA1710, isolate ATCC BAA-1710, read-out: MIC",32 µg/mL
same,MIC,"Acinetobacter baumannii; Acinetobacter baumannii, ATCCBAA1791, isolate ATCC BAA-1791, read-out: MIC",> 32 µg/mL
same,MIC,"Acinetobacter baumannii; Acinetobacter baumannii, ATCCBAA1795, isolate ATCC BAA-1795, read-out: MIC",> 32 µg/mL
same,MIC,"Acinetobacter baumannii; Acinetobacter baumannii, ATCCBAA1878, isolate ATCC BAA-1878, read-out: MIC",4 to 8 µg/mL
same,MIC,"Acinetobacter baumannii; Acinetobacter baumannii, CIP105742, isolate CIP 105742, read-out: MIC",0.125 to 0.25 µg/mL
same,MIC,"Acinetobacter baumannii; Acinetobacter baumannii, CIP107292, isolate CIP 107292, read-out: MIC",> 32 µg/mL
same,MIC,"Acinetobacter baumannii; Acinetobacter baumannii, NCTC13301, isolate NCTC13301, read-out: MIC",> 32 µg/mL
same,MIC,"Acinetobacter baumannii; Acinetobacter baumannii, isolate BM4454, read-out: MIC",32 µg/mL
same,MIC,"Acinetobacter baumannii; Acinetobacter baumannii, isolate G478 (AYE), read-out: MIC",> 32 µg/mL
same,MIC,"Acinetobacter baumannii; Acinetobacter baumannii, isolate R831, read-out: MIC",8 µg/mL
same,MIC,"Acinetobacter baumannii; Acinetobacter baumannii, isolate R835, read-out: MIC",32 µg/mL
same,MIC,"Klebsiella pneumoniae; Klebsiella pneumoniae, NCTC13439, isolate NCTC13439",16 µg/mL
same,MIC,"Klebsiella pneumoniae; Klebsiella pneumoniae, NCTC13442, isolate NCTC13442",4 µg/mL
same,Δlog CFU/g in thigh muscle,[1],–4.06 log CFU/g
same,MIC,Escherichia coli; Escherichia coli,0.063 to 0.125 µg/mL
"C[C@@H](O)[C@H]1C(=O)N2C(C(=O)O)=C(S[C@@H]3CN[C@H](C(=O)N(C)C)C3)[C@H](C)[C@H]12 [MER, Meropenem]",Δlog CFU/mL Blood compared to SOT,Escherichia coli 106-09,–2.98 log CFU/mL
same,Δlog CFU/mL PF compared to SOT,Escherichia coli 106-09,–4.33 log CFU/mL
colistin,MIC,Pseudomonas aeruginosa; isolate ATCC BAA-2114,2 µg/mL
same,MIC,Pseudomonas aeruginosa; isolate BOR 04,4 µg/mL
same,MIC,Pseudomonas aeruginosa; isolate BOR 05,4 µg/mL
same,MIC,Pseudomonas aeruginosa; isolate CAE 02,2 µg/mL
same,MIC,Pseudomonas aeruginosa; isolate CHA,2 µg/mL
same,MIC,Pseudomonas aeruginosa; isolate CHRU LILLE VAP11,4 µg/mL
same,MIC,Pseudomonas aeruginosa; isolate CHRU LILLE VAP65a,4 µg/mL
same,MIC,Pseudomonas aeruginosa; isolate CIP 105250,2 µg/mL
same,MIC,Pseudomonas aeruginosa; isolate CIP 105381,2 µg/mL
same,MIC,Pseudomonas aeruginosa; isolate CIP 107051,2 µg/mL
same,MIC,Pseudomonas aeruginosa; isolate CLI 02,2 to 4 µg/mL
same,MIC,Pseudomonas aeruginosa; isolate CLI 03,2 µg/mL
same,MIC,Pseudomonas aeruginosa; isolate COL 03,2 µg/mL
same,MIC,Pseudomonas aeruginosa; isolate DIJ 02,2 µg/mL
same,MIC,Pseudomonas aeruginosa; isolate NANC 01,2 µg/mL
same,MIC,Pseudomonas aeruginosa; isolate NANC 06,4 µg/mL
same,MIC,Pseudomonas aeruginosa; isolate NCTC13437,2 µg/mL
same,MIC,Pseudomonas aeruginosa; isolate PA 43,2 µg/mL
same,MIC,Pseudomonas aeruginosa; isolate PAO1,4 µg/mL
same,MIC,Pseudomonas aeruginosa; isolate PBI 01,4 µg/mL
same,MIC,Pseudomonas aeruginosa; isolate PBI 03G,2 µg/mL
same,MIC,Pseudomonas aeruginosa; isolate PBI 07,2 µg/mL
same,MIC,Pseudomonas aeruginosa; isolate PGP 02,4 µg/mL
same,MIC,Pseudomonas aeruginosa; isolate R1541,4 µg/mL
same,MIC,Pseudomonas aeruginosa; isolate R2254,4 µg/mL
same,MIC,Pseudomonas aeruginosa; isolate R2255,2 µg/mL
same,MIC,Pseudomonas aeruginosa; isolate R2256,2 µg/mL
same,MIC,Pseudomonas aeruginosa; isolate ROU 01,4 µg/mL
same,MIC,Pseudomonas aeruginosa; isolate SDE 05,2 µg/mL
same,MIC,Pseudomonas aeruginosa; isolate STR 02,2 µg/mL
same,MIC,Pseudomonas aeruginosa; isolate TOUL 01,2 to 4 µg/mL
same,MIC,Acinetobacter baumannii; isolate ATCC17978,4 µg/mL
same,MIC,Acinetobacter baumannii; isolate ATCC19003,2 to 4 µg/mL
same,MIC,Acinetobacter baumannii; isolate ATCC19187,4 µg/mL
same,MIC,Acinetobacter baumannii; isolate ATCC19606,4 µg/mL
same,MIC,Acinetobacter baumannii; isolate ATCC27224,2 µg/mL
same,MIC,Acinetobacter baumannii; isolate ATCC51432,8 µg/mL
same,MIC,Acinetobacter baumannii; isolate ATCC BAA-747,4 µg/mL
same,MIC,Acinetobacter baumannii; isolate ATCC BAA-1605,2 µg/mL
same,MIC,Acinetobacter baumannii; isolate ATCC BAA-1710,4 to 8 µg/mL
same,MIC,Acinetobacter baumannii; isolate ATCC BAA-1791,2 µg/mL
same,MIC,Acinetobacter baumannii; isolate ATCC BAA-1795,8 µg/mL
same,MIC,Acinetobacter baumannii; isolate ATCC BAA-1878,4 µg/mL
same,MIC,Acinetobacter baumannii; isolate BM4454,4 to 8 µg/mL
same,MIC,Acinetobacter baumannii; isolate BM4652 (efflux mutant),4 µg/mL
same,MIC,Acinetobacter baumannii; isolate CIP 105742,2 µg/mL
same,MIC,Acinetobacter baumannii; isolate CIP 107292,4 to 8 µg/mL
same,MIC,Acinetobacter baumannii; isolate DSM 30008,4 µg/mL
same,MIC,Acinetobacter baumannii; isolate G478 (AYE),2 to 8 µg/mL
same,MIC,Acinetobacter baumannii; isolate NCTC13301,8 µg/mL
same,MIC,Acinetobacter baumannii; isolate R831,4 to 8 µg/mL
same,MIC,Acinetobacter baumannii; isolate R835,4 to 8 µg/mL
same,MIC,Klebsiella pneumoniae; isolate ATCC13883,1 µg/mL
same,MIC,Klebsiella pneumoniae; isolate ATCC13883 ColR_,64 µg/mL
same,MIC,Klebsiella pneumoniae; isolate ATCC43816,1 µg/mL
same,MIC,Klebsiella pneumoniae; isolate ATCC BAA-1705,2 µg/mL
same,MIC,Klebsiella pneumoniae; isolate ATCC BAA-1903,1 µg/mL
same,MIC,Klebsiella pneumoniae; isolate ATCC BAA-2342,4 µg/mL
same,MIC,Klebsiella pneumoniae; isolate ATCC BAA-2470,1 µg/mL
same,MIC,Klebsiella pneumoniae; isolate ATCC BAA-2472,2 µg/mL
same,MIC,Klebsiella pneumoniae; isolate ATCC BAA-2473,1 µg/mL
same,MIC,Klebsiella pneumoniae; isolate CIP 104119,1 µg/mL
same,MIC,Klebsiella pneumoniae; isolate CIP 104298,16 µg/mL
same,MIC,Klebsiella pneumoniae; isolate CIP 105705,2 µg/mL
same,MIC,Klebsiella pneumoniae; isolate CIP 106982,2 µg/mL
same,MIC,Klebsiella pneumoniae; isolate Clinical Lyo-01,1 µg/mL
same,MIC,Klebsiella pneumoniae; isolate Clinical Lyo-02,1 µg/mL
same,MIC,Klebsiella pneumoniae; isolate Clinical Lyo-03,2 µg/mL
same,MIC,Klebsiella pneumoniae; isolate Clinical Lyo-04,1 µg/mL
same,MIC,Klebsiella pneumoniae; isolate Clinical Lyo-05,1 µg/mL
same,MIC,Klebsiella pneumoniae; isolate G52,1 µg/mL
same,MIC,Klebsiella pneumoniae; isolate G197,1 µg/mL
same,MIC,Klebsiella pneumoniae; isolate G201,1 µg/mL
same,MIC,Klebsiella pneumoniae; isolate G306,1 µg/mL
same,MIC,Klebsiella pneumoniae; isolate NCTC13438,1 µg/mL
same,MIC,Klebsiella pneumoniae; isolate NCTC13439,2 µg/mL
same,MIC,Klebsiella pneumoniae; isolate NCTC13442,1 µg/mL
same,MIC,Klebsiella pneumoniae; isolate NCTC13443,1 µg/mL
same,MIC,Klebsiella pneumoniae; isolate R750,1 µg/mL
same,MIC,Klebsiella pneumoniae; isolate R1242,1 µg/mL
same,MIC,Klebsiella pneumoniae; isolate R1525,1 µg/mL
same,MIC,Klebsiella pneumoniae; isolate R2673,1 µg/mL
same,MIC,Escherichia coli; isolate ATCC25922,2 to 4 µg/mL
same,MIC,Escherichia coli; isolate ATCC BAA-2340,2 µg/mL
same,MIC,Escherichia coli; isolate ATCC BAA-2469,2 µg/mL
same,MIC,Escherichia coli; isolate ATCC BAA-2471,1 to 2 µg/mL
same,MIC,Escherichia coli; isolate CIP 104103,1 to 2 µg/mL
same,MIC,Escherichia coli; isolate CIP 105706,1 to 2 µg/mL
same,MIC,Escherichia coli; isolate CIP 107049,2 to 4 µg/mL
same,MIC,Escherichia coli; isolate G38,2 µg/mL
same,MIC,Escherichia coli; isolate G41 (first listing),2 µg/mL
same,MIC,Escherichia coli; isolate G41 (second listing),1 µg/mL
same,MIC,Escherichia coli; isolate G260,2 µg/mL
same,MIC,Escherichia coli; isolate G264,2 µg/mL
same,MIC,Escherichia coli; isolate G409,2 µg/mL
same,MIC,Escherichia coli; isolate G486,2 µg/mL
same,MIC,Escherichia coli; isolate G487,1 µg/mL
same,MIC,Escherichia coli; isolate NCTC10418,2 to 4 µg/mL
same,MIC,Escherichia coli; isolate NCTC13352,2 to 4 µg/mL
same,MIC,Escherichia coli; isolate NCTC13400,1 µg/mL
same,MIC,Escherichia coli; isolate NCTC13441,2 µg/mL
same,MIC,Escherichia coli; isolate NCTC13846,8 µg/mL
same,MIC,Escherichia coli; isolate PRAA1,1 µg/mL
same,MIC,Escherichia coli; isolate PRAA3,2 to 4 µg/mL
same,MIC,Escherichia coli; isolate PRAA17,2 µg/mL
same,MIC,Escherichia coli; isolate PRAA18,2 µg/mL
same,MIC,Escherichia coli; isolate PRAA21,2 to 4 µg/mL
same,MIC,Escherichia coli; isolate R721,2 µg/mL
same,MIC,Escherichia coli; isolate R995,2 µg/mL
same,MIC,Escherichia coli; isolate R996,1 µg/mL
same,MIC,Escherichia coli; isolate R1535,2 µg/mL
same,MIC,Escherichia coli; isolate R2670,1 to 2 µg/mL
